Source: paper PMC7286885, “An iron (II) dependent oxygenase performs the last missing step of plant lysine catabolism” (Nature Communications, 2020)

Assays:
FLO7 = molecular target: T1, FLO7 (Oryza sativa, UniProt Q337M4); experiment: X-ray crystal structure at […] Å, soaked crystals; format: binding; conditions: active-site Ni(II); Arg64 binds the substrate
T1 construct: E. coli codon-optimized gene, expressed in E. coli BL21 (DE3), Ni-NTA purified
T1 sequence (Q337M4 48-364 limits assumed): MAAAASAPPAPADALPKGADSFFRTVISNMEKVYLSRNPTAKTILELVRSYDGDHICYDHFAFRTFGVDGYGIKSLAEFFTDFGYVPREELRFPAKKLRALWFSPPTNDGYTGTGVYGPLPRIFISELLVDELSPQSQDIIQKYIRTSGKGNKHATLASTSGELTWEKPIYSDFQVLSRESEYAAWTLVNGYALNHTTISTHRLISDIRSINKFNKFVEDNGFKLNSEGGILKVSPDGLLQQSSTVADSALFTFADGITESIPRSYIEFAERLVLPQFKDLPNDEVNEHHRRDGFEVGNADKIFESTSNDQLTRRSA

YdcJ = molecular target: T2, YdcJ (Escherichia coli, UniProt P76097); experiment: in vitro assay, product by high resolution LC-MS; format: biochemical; conditions: conversion to 2-hydroxyglutarate
T2 construct: recombinant in E. coli BL21 (DE3), Ni-NTA purified
T2 sequence (P76097 1-447): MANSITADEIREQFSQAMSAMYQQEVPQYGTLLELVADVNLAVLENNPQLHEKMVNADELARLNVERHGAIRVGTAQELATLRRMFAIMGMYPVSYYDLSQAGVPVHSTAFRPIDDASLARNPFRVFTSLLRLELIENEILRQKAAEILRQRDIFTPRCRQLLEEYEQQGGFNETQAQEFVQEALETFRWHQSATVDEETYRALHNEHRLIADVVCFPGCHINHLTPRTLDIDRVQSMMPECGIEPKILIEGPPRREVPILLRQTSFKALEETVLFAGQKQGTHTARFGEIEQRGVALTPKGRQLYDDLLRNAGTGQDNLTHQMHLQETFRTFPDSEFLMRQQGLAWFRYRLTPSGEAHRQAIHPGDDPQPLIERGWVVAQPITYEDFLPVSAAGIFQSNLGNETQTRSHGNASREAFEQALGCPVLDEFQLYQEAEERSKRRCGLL

AT1G07040 = molecular target: T3, AT1G07040 (Arabidopsis thaliana, UniProt Q9LMJ7); experiment: in vitro assay, product by high resolution LC-MS; format: biochemical; conditions: conversion to 2-hydroxyglutarate; N-terminal localization peptide removed
T3 construct: amplified from Arabidopsis cDNA, expressed in E. coli BL21 (DE3), Ni-NTA purified
T3 sequence (Q9LMJ7 51-371): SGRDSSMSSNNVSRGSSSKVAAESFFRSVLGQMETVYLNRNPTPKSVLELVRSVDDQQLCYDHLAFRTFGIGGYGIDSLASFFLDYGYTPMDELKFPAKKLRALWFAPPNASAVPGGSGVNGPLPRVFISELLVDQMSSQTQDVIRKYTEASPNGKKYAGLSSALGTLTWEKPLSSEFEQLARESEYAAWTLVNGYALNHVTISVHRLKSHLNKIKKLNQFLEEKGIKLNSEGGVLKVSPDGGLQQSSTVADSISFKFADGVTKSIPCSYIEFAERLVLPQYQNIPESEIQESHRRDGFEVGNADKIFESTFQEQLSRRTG

HglS = molecular target: T4, HglS (Pseudomonas putida, UniProt Q88CC1); experiment: X-ray crystal structure, soaked crystals; format: binding; conditions: active-site Ni(II) (noncatalytic); 2OA carboxylate and alpha-keto group coordinate the metal, Arg74 salt bridge
T4 construct: recombinant in E. coli BL21 (DE3), Ni-NTA purified; crystals contain mainly active-site Ni(II); activity with Fe(II)
T4 sequence (Q88CC1 1-464): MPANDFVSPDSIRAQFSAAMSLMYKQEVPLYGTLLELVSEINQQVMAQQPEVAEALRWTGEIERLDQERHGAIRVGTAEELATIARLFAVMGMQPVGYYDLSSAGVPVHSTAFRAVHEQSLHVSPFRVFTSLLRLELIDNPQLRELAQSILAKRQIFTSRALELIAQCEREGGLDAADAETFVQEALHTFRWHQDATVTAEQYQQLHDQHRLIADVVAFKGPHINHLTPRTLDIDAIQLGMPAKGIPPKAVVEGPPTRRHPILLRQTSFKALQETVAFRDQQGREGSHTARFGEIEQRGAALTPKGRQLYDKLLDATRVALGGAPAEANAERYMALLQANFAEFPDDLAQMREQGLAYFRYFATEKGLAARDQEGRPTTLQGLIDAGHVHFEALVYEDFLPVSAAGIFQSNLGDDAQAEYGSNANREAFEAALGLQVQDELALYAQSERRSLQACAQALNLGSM

[1] = substrate: O=C(O)CCCC(=O)C(=O)O; experiment: initial rates of O2 consumption, Clark-type electrode; format: biochemical, Pseudomonas putida; conditions: 10 µM FeSO4, 100 mM Tris pH 7.0, room temperature, 240 µM O2, 10-200 µM 2OA, 100 nM enzyme
Source text: initial rates of O2 consumption, Clark-type electrode on HglS | kinetic parameters determined by monitoring oxygen consumption were similar to those we previously reported

[2] = substrate: O=C(O)CCCC(=O)C(=O)O; experiment: steady-state kinetics of purified enzyme; format: biochemical, Oryza sativa; conditions: Fe(II)- and O2-dependent; N-terminal localization peptide removed

`O=C(O)CCCC(=O)C(=O)O` [2OA, 2-oxoadipate] was tested, and the “X-ray crystal structure at 1.85 Å, soaked crystals” value (FLO7) was “soaked with 2OA, producing diffraction data used to solve the substrate-bound crystal structure”, the “in vitro assay, product by high resolution LC-MS” value (YdcJ) was “the E. coli homolog YdcJ and the plant homologs AT1G07040 and FLO7 catalyzed the conversion” and the “in vitro assay, product by high resolution LC-MS” value (AT1G07040) was “plant homologs AT1G07040 and FLO7 catalyzed the conversion of 2OA”. For the same molecule, the “X-ray crystal structure, soaked crystals” value (HglS) was “soaked HglS crystals with 2OA and solved the structure of the resulting complex”.

B1: HglS (Pseudomonas putida KT2440) (protein)
chain: T4 sequence (Q88CC1 1-464)
notes: recombinant in E. coli BL21 (DE3), Ni-NTA purified; crystals contain mainly active-site Ni(II); activity with Fe(II)
B1 gave a Km [1] of 10 µM.

B2: FLO7 (Oryza sativa Japonica Group) (protein)
chain: T1 sequence (Q337M4 48-364 limits assumed)
notes: E. coli codon-optimized gene, expressed in E. coli BL21 (DE3), Ni-NTA purified
Work on B2 yielded a Km [2] of 550 µM.
